Measurements from patent publication US7569572B2, “Pyrazolo[4,3-D]pyrimidines” (Pfizer Inc, priority 2004, dated 2009).
Where a name gives a salt, the structure may show the parent alone.

Molecular target: T1, human platelet PDE5 (Homo sapiens, UniProt O76074)
T1 construct: utilizes PDE5 isolated from human platelets; from tissue; host or cells: human platelets
Test: Method A: PDE-5 Inhibition Scintillation Proximity Assay (SPA) - Human Platelet
Type: biochemical
Settings: cGMP substrate 500 nM, PDE5 isolated from human platelets
Excerpt: Method A: PDE-5 Inhibition Scintillation Proximity Assay (SPA)—Human Platelet
The assay measures the inhibition of human platelet PDE5 enzyme activity by a test compound in an in vitro assay that utilizes PDE5 isolated from human platelets. The PDE5 enzyme can be isolated from platelets essentially by a modification of the method of Thompson, W J et al.; Biochemistry 18(23), 5228-5237, 1979, as described by Ballard S A et al.; J. Urology 159(6), 2164-2171, 1998. PDE5 catalyzes the hydrolysis of [^3H]cGMP to the 5′ nucleotide [^3H]GMP. [^3H]GMP binds to yttrium silicate SPA beads and is detected by scintillation counting. […] The inhibition of enzyme activity is calculated relative to total PDE5 activity of uninhibited controls.
PDE5 IC50 Assay: 96-Well Microtiter Plate Format
Buffer A: 20 mM Tris-HCl, 5 mM MgCl2, pH 7.4
Buffer B: 2 mg/ml BSA in Buffer A (enzyme buffer)
cGMP substrate: Final concentration of 500 nM in assay
The amount of ^3H-labeled substrate added depends upon the specific activity of [^3H]cGMP, and it is diluted with a 10 mM stock of cold cGMP in Buffer A for a final substrate concentration of 500 nM in the assay.
PDE enzyme: Prepared in Buffer B. The dilution factor is determined by enzyme activity.
SPA beads: 20 mg/ml suspension prepared in dH2O.
Stocks of standard and test compounds are prepared at 5 mM in 100% DMSO. Compounds are serially diluted in separate dilution plates using a 10-point ½ log dilution format. 2 μl of the compound dilutions are added in duplicate to the wells of the assay plate; 2 μl of 100% DMSO are added to designated control wells. 25 μl of Buffer A are added to all wells. 25 μl of Buffer B are added to the negative control wells, and 25 μl of enzyme are added to the remaining wells. 50 μl of substrate are added to each well. Plates are sealed and incubated for 60 minutes on a plate shaker at 30 C. 50 μl of SPA beads are added to stop the reaction. The plates are again sealed and shaken for 15 minutes to allow the beads to bind the GMP product. The beads are allowed to settle for 30 minutes and then read on a NXT TopCount. Data is analyzed with the ECADA application. In this analysis, % inhibition is calculated: (mean maximum−compound value/(mean maximum−mean minimum)×100. IC50s are determined from sigmoid dose-response curves of enzyme activity vs compound concentration.

Structure (SMILES)	IC50
CCOCCn1nc(CNC(=O)CN(C)C)c2nc(N(C)C)nc(Nc3cc(C)ccn3)c21 [Example 1, 2-Dimethylamino-N-[5-dimethylamino-1-(2-ethoxyethyl)-7-(4-methylpyridin-2-ylamino)-1H-pyrazolo[4,3-d]pyrimidin-3-ylmethyl]acetamide]	1.12 nM
CCOCCn1nc(CNS(C)(=O)=O)c2nc(N(C)C)nc(Nc3cc(C)ccn3)c21 [Example 2, N-[5-dimethylamino-1-(2-ethoxyethyl)-7-(4-methylpyridin-2-ylamino)-1H-pyrazolo[4,3-d]pyrimidin-3-ylmethyl]methanesulfonamide]	1.25 nM
CCNc1nc(Nc2cc(C)ccn2)c2c(n1)c(CNS(C)(=O)=O)nn2CCOCC [Example 3]	1.1 nM
CCOCCn1nc(CNC(=O)CO)c2nc(N(C)C)nc(Nc3cc(C)ccn3)c21 [Example 4, N-[5-dimethylamino-1-(2-ethoxyethyl)-7-(4-methylpyridin-2-ylamino)-1H-pyrazolo[4,3-d]pyrimidin-3-ylmethyl]-2-hydroxyacetamide]	0.77 nM
CCNc1nc(Nc2cc(C)ccn2)c2c(n1)c(CNC(=O)CO)nn2CCOCC [Example 5]	0.58 nM
CCOCCn1nc(CNC(C)=O)c2nc(N(C)C)nc(Nc3cc(C)ccn3)c21 [Example 6, N-[5-dimethylamino-1-(2-ethoxyethyl)-7-(4-methylpyridin-2-ylamino)-1H-pyrazolo[4,3-d]pyrimidin-3-ylmethyl]acetamide]	0.39 nM
CCOCCn1nc(CNC(C)=O)c2nc(NC)nc(Nc3cc(C)ccn3)c21 [Example 7]	9 nM
CCNc1nc(Nc2cc(C)ccn2)c2c(n1)c(CNC(C)=O)nn2CCOCC [Example 8, N-[1-(2-ethoxyethyl)-5-ethylamino-7-(4-methylpyridin-2-ylamino)-1H-pyrazolo[4,3-d]pyrimidin-3-ylmethyl]acetamide]	0.59 nM
CCOCCn1nc(CNC(=O)CC)c2nc(N(C)C)nc(Nc3cc(C)ccn3)c21 [Example 9, N-[5-dimethylamino-1-(2-ethoxyethyl)-7-(4-methylpyridin-2-ylamino)-1H-pyrazolo[4,3-d]pyrimidin-3-ylmethyl]propionamide]	0.33 nM
CCOCCn1nc(CNC(=O)CC)c2nc(NC)nc(Nc3cc(C)ccn3)c21 [Example 10]	2.5 nM
CCNc1nc(Nc2cc(C)ccn2)c2c(n1)c(CNC(=O)CC)nn2CCOCC [Example 11, N-[1-(2-ethoxyethyl)-5-ethylamino-7-(4-methylpyridin-2-ylamino)-1H-pyrazolo[4,3-d]pyrimidin-3-ylmethyl]propionamide]	0.53 nM
CCOCCn1nc(CNC)c2nc(N(C)C)nc(Nc3cc(C)ccn3)c21 [Example 12]	4.5 nM
CCOCCn1nc(CN(C)C(C)=O)c2nc(N(C)C)nc(Nc3cc(C)ccn3)c21 [Example 13]	0.4 nM
CCOCCn1nc(CN(C)C(C)=O)c2nc(NC)nc(Nc3cc(C)ccn3)c21 [Example 14]	5.5 nM
CCNc1nc(Nc2cc(C)ccn2)c2c(n1)c(CN(C)C(C)=O)nn2CCOCC [Example 15, N-[1-(2-ethoxyethyl)-5-ethylamino-7-(4-methylpyridin-2-ylamino)-1H-pyrazolo[4,3-d]pyrimidin-3-ylmethyl]-N-methylacetamide]	0.48 nM
CCOCCn1nc(CN(C)C(C)=O)c2nc(N(C)C)nc(Nc3ccncn3)c21 [Example 16, N-[5-Dimethylamino-1-(2-ethoxyethyl)-7-(pyrimidin-4-ylamino)-1H-pyrazolo[4,3-d]pyrimidin-3-ylmethyl]-N-methylacetamide]	5.9 nM
CCOCCn1nc(CNC)c2nc(N(C)C)nc(Nc3cnccn3)c21 [Example 17, 1-(2-ethoxyethyl)-N^5,N^5-dimethyl-3-(methylaminomethyl)-N^7-(pyrazin-2-yl)-1H-pyrazolo[4,3-d]pyrimidine-5,7-diamine hydrochloride]	> 100 nM
CCOCCn1nc(CN2CCN(C)CC2)c2nc(N(C)C)nc(Nc3cc(C)ccn3)c21 [Example 18, 1-(2-Ethoxyethyl)-N^5,N^5-dimethyl-3-[(4-methylpiperazin-1-yl)methyl]-N^7-(4-methylpyridin-2-yl)-1H-pyrazolo[4,3-d]pyrimidine-5,7-diamine hydrochloride]	2.3 nM
CCOCCn1nc(CN2CCC[C@@H]2COC)c2nc(N(C)C)nc(Nc3cc(C)ccn3)c21 [Example 19]	4.3 nM

Structure (SMILES)	IC50
CCOCCn1nc(CN2CCC[C@H]2COC)c2nc(N(C)C)nc(Nc3cc(C)ccn3)c21 [Example 20]	2.1 nM
CCOCCn1nc(CN2CC[C@H](OC)C2)c2nc(N(C)C)nc(Nc3cc(C)ccn3)c21 [Example 21]	2 nM
CCOCCn1nc(CN2CC[C@@H](OC)C2)c2nc(N(C)C)nc(Nc3cc(C)ccn3)c21 [Example 22]	3.2 nM
CCCNCc1nn(CCOCC)c2c(Nc3cc(C)ccn3)nc(N(C)C)nc12 [Example 24]	5.8 nM
CCOCCn1nc(CN2CCCC2)c2nc(N(C)C)nc(Nc3cc(C)ccn3)c21 [Example 25]	5.2 nM
CCNCc1nn(CCOCC)c2c(Nc3ccc(C)cn3)nc(N(C)C)nc12 [Example 26]	3.4 nM
CCOCCn1nc(CN(C)C)c2nc(N(C)C)nc(Nc3cc(C)ccn3)c21 [Example 28]	6.9 nM
CCOCCn1nc(CNCCOC)c2nc(N(C)C)nc(Nc3cc(C)ccn3)c21 [Example 29]	3.3 nM
CCOCCn1nc(CN2CCOCC2)c2nc(N(C)C)nc(Nc3cc(C)ccn3)c21 [Example 30, 1-(2-ethoxyethyl)-N^5,N^5-dimethyl-3-[(4-morpholino)methyl]-N^7-(4-methylpyridin-2-yl)-1H-pyrazolo[4,3-d]pyrimidine-5,7-diamine]	1.06 nM
CCNCc1nn(CCOCC)c2c(Nc3cc(C)ccn3)nc(N(C)C)nc12 [Example 31, 1-(2-ethoxyethyl)-3-(ethylaminomethyl)-N^5,N^5-dimethyl-N^7-(4-methylpyridin-2-yl)-1H-pyrazolo[4,3-d]pyrimidine-5,7-diamine]	3.4 nM
CCNCc1nn(CCOCC)c2c(Nc3ccncn3)nc(N(C)C)nc12 [Example 32, 1-(2-ethoxyethyl)-3-(ethylaminomethyl)-N^5,N^5-dimethyl-N^7-(pyrimidin-4-yl)-1H-pyrazolo[4,3-d]pyrimidine-5,7-diamine]	> 100 nM
CCOCCn1nc(CNCCOC)c2nc(N(C)C)nc(Nc3ccncn3)c21 [Example 33, 1-(2-ethoxyethyl)-3-[(2-methoxyethylamino)methyl]-N^5,N^5-dimethyl-N^7-pyrimidin-4-yl-1H-pyrazolo[4,3-d]pyrimidine-5,7-diamine]	> 100 nM
CCOCCn1nc(CN(CC)CC)c2nc(N(C)C)nc(Nc3ccncn3)c21 [Example 34, 3-(Diethylaminomethyl)-1-(2-ethoxyethyl)-N^5,N^5-dimethyl-N^7-(pyrimidin-4-yl)-1H-pyrazolo[4,3-d]pyrimidine-5,7-diamine]	23.6 nM
CCOCCn1nc(CNC)c2nc(N(C)C)nc(Nc3ccncn3)c21 [Example 35, 1-(2-ethoxyethyl)-N^5,N^5-dimethyl-3-(methylaminomethyl)-N^7-pyrimidin-4-yl-1H-pyrazolo[4,3-d]pyrimidine-5,7-diamine hydrochloride]	> 100 nM
CCOCCn1nc(CNC)c2nc(N(C)CCO)nc(Nc3cc(C)ccn3)c21 [Example 36, 2-{[1-(2-ethoxyethyl)-3-(methylaminomethyl)-7-(4-methylpyridin-2-ylamino)-1H-pyrazolo[4,3-d]pyrimidin-5-yl]methylamino}ethanol hydrochloride]	188 nM
CCOCCn1nc(CNC)c2nc(N(C)CCOC)nc(Nc3cc(C)ccn3)c21 [Example 37, 1-(2-ethoxyethyl)-N^5-(2-methoxyethyl)-N^5-methyl-3-(methylaminomethyl)-N^7-(4-methylpyridin-2-yl)-1H-pyrazolo[4,3-d]pyrimidine-5,7-diamine hydrochloride]	4.4 nM
CCCN(Cc1nn(CCOCC)c2c(Nc3cc(C)ccn3)nc(N(C)C)nc12)C(C)=O [Example 39, N-[5-Dimethylamino-1-(2-ethoxyethyl)-7-(4-methylpyridin-2-ylamino)-1H-pyrazolo[4,3-d]pyrimidin-3-ylmethyl]-N-propylacetamide]	1.53 nM
CCOCCn1nc(CN2CCNCC2)c2nc(N(C)C)nc(Nc3cc(C)ccn3)c21 [Example 40, 1-(2-ethoxyethyl)-N^5,N^5-dimethyl-N^7-(4-methylpyridin-2-yl)-3-(piperazin-1-ylmethyl)-1H-pyrazolo[4,3-d]pyrimidine-5,7-diamine hydrochloride]	5.8 nM
